Patent US20080221116A1, “ISOXAZOLINE ALPHA 1a/1d ADRENORECEPTOR ANTAGONISTS” (priority 2006, published 2008)
Several values for one entry are separate records, joined by “and”; a condition that tells them apart may be missing. Identical values can stand only once. Like-named read-outs stand apart in the source and are kept apart here.

How the values were obtained:
Conditions in all cases: COS-7 membranes
α1a-AR = target: T1, α1a-AR (Homo sapiens, UniProt P35348); experiment: α1-Adrenergic Receptor Binding Assay, 125I-HEAT radio-ligand binding, transfected COS-7 cell membranes, α1a subtype
T1 construct: expressed in transfected cells; host or cells: COS-7 cells (African Green monkey kidney), membranes
T1 sequence (P35348 1-466): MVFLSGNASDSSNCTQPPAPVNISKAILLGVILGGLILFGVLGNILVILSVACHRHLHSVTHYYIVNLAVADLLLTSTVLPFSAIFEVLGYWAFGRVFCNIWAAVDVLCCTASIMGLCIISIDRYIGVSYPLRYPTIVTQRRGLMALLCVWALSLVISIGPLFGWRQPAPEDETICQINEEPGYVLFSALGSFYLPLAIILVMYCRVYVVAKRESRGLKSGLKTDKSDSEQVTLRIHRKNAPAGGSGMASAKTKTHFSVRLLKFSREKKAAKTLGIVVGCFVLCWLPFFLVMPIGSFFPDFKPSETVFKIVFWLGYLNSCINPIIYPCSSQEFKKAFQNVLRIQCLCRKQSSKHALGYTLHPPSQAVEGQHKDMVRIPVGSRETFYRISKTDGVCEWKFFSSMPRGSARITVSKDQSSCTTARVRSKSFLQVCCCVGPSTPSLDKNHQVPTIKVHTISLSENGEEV
Protocol: (§1) Membranes were prepared from COS-7 cells (African Green monkey kidney SV40-transformed cells) that had been transfected with one of the three α1-AR subtypes by the following method: COS cells from ten 100 mm tissue culture plates were scraped into a 5 ml volume of TE (a mixture of 50 mM tris(hydroxymethyl)aminomethane hydrochloride (Tris-HCl) and 5 mM ethylenediaminetetraacetic acid (EDTA) at pH 7.4). The cell suspension was disrupted with a Brinkman Polytron (at a setting of 8) for 10 sec. The disrupted cells were centrifuged at 1000×g for 10 min at 4° C. Supernatants were centrifuged at 34,500×g for 20 min at 4° C. The membrane pellets were suspended in a 2 ml volume of TNE (a mixture of 50 mM Tris-HCl, 5 mM EDTA and 150 mM NaCl at pH7.4). An aliquot of the membrane suspension was stored at −70° C. until use. The protein concentration was determined using a BioRad “DC” protein assay kit following membrane solubilization with Triton X-100.
(§2) Triplicate determinations of radio-ligand binding in the presence of increasing concentrations of testing compound were made. The reagents were added to 96-well polypropylene plate wells. Each assay well contained 140 μL TNE, 25 μL 125′-2-(β-4-hydroxyphenyl)ethylaminomethyltetralone (^125I-HEAT) (specific activity 2200 Ci/mmol, Dupont-New England Nuclear, […] final), 10 μL testing compound dissolved in dimethyl sulfoxide (DMSO) ([…] to 10 μM in half-log increments, final), and 25 μL appropriate α1-AR membrane subtype suspension in TNE (0.5 ng/μL for the α1a and α1b subtypes and 13 ng/μL for the α1d subtype). The plate was incubated at rt for 1 hr. The contents of the wells were filtered through a glass filter (type C) (GF/C) membrane Unifilter plate (Packard Instruments) using the Packard Filtermate cell harvester. The filter plates were dried in a vacuum oven for 30 min at 40° C. 25 μL Microscint 20 liquid scintillation fluid (Packard Instuments) was added to each well. The radioactive content was analyzed in the TopCount microplate scintillation counter (Packard Instruments).
(§3) The Ki values (in nM) shown in Table 1 were determined using GraphPad Prism software.

α1b-AR = target: T2, α1b-AR (Homo sapiens, UniProt P35368); experiment: α1-Adrenergic Receptor Binding Assay, 125I-HEAT radio-ligand binding, transfected COS-7 cell membranes, α1b subtype
T2 construct: expressed in transfected cells; host or cells: COS-7 cells (African Green monkey kidney), membranes
T2 sequence (P35368 1-520): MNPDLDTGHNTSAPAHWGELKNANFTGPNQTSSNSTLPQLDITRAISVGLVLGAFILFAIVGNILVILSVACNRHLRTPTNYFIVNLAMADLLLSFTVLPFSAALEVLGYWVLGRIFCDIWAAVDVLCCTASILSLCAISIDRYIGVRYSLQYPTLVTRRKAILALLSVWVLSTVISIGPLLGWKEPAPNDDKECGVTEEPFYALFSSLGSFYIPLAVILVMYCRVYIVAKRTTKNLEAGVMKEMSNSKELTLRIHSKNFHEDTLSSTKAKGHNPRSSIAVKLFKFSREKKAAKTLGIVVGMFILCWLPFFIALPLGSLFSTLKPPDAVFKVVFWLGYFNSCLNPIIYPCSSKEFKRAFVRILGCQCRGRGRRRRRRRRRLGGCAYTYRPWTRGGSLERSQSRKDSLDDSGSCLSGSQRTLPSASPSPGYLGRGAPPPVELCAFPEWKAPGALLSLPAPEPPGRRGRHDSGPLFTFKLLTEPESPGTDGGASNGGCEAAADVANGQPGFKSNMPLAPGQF
Protocol: as §1, §2, §3

α1d-AR = target: T3, α1d-AR (Homo sapiens, UniProt P25100); experiment: α1-Adrenergic Receptor Binding Assay, 125I-HEAT radio-ligand binding, transfected COS-7 cell membranes, α1d subtype
T3 construct: expressed in transfected cells; host or cells: COS-7 cells (African Green monkey kidney), membranes
T3 sequence (P25100 1-572): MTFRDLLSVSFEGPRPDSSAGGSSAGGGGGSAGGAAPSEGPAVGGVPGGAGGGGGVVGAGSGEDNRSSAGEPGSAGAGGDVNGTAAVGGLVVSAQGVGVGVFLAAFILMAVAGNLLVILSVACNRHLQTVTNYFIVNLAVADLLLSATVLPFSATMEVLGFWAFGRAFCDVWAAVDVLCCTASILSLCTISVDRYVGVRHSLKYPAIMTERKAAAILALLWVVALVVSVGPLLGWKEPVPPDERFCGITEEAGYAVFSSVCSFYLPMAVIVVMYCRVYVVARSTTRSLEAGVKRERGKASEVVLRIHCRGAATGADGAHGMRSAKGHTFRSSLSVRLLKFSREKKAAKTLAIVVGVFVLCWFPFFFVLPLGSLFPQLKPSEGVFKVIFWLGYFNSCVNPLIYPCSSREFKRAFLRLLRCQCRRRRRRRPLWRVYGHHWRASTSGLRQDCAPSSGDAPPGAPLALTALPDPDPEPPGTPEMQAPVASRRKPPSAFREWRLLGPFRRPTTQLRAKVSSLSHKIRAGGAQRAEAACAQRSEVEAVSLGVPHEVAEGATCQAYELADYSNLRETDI
Protocol: as §1, §2, §3

[1] = average value, read-out: Alpha 1 Ki α1a (1) Average Value
[2] = individual values, read-out: Alpha 1 Ki α1a (2) Individual Values
[3] = average value, read-out: Alpha 1 Ki α1b (1) Average Value
[4] = individual values, read-out: Alpha 1 Ki α1b (2) Individual Values
[5] = average value, read-out: Alpha 1 Ki α1d (1) Average Value
[6] = individual values, read-out: Alpha 1 Ki α1d (2) Individual Values

SMILES	Ki (α1a-AR; [1]) [nM]	Ki (α1a-AR; [2])	Ki (α1b-AR; [3]) [nM]	Ki (α1b-AR; [4])	Ki (α1d-AR; [5]) [nM]	Ki (α1d-AR; [6])
CC(C)Oc1ccccc1N1CCN(CC2CC(C(=O)N3CCC(Oc4ccc(Cl)cc4)CC3)=NO2)CC1 (centres unmarked) [Compound 34, [4-(4-chloro-phenoxy)-piperidin-1-yl]-{5-[4-(2-isopropoxy-phenyl)-piperazin-1-ylmethyl]-4,5-dihydro-isoxazol-3-yl}-methanone]	40	40 nM	255	255 nM	27	27 nM
CC(C)Oc1ccccc1N1CCN(CC2CC(C(=O)N3CCOCC3)=NO2)CC1 (single isomer, unassigned) [Compound 45, {(5R*)-5-[4-(2-Isopropoxy-phenyl)-piperazin-1-ylmethyl]-4,5-dihydro-isoxazol-3-yl}-morpholin-4-yl-methanone]	73.1	73.1 nM	1060	1060 nM	297	297 nM
CC(C)Oc1ccccc1N1CCN(CC2CC(C(=O)N3CCC(Oc4ccccc4)CC3)=NO2)CC1 (single isomer, unassigned) [Compound 39, {(5S*)-5-[4-(2-isopropoxy-phenyl)-piperazin-1-ylmethyl]-4,5-dihydro-isoxazol-3-yl}-(4-phenoxy-piperidin-1-yl)-methanone]	1.6	1.4 nM and 1.8 nM	217	223 nM and 210 nM	8.55	10.4 nM and 6.7 nM
CC(=O)N1CCc2ccc(NC(=O)C3=NOC(CN4CCN(c5ccccc5OC(C)C)CC4)C3)cc21 (centres unmarked) [Compound 24, 5-[4-(2-isopropoxy-phenyl)-piperazin-1-ylmethyl]-4,5-dihydro-isoxazole-3-carboxylic acid (1-acetyl-2,3-dihydro-1H-indol-6-yl)-amide]	5.46	5.46 nM	101	101 nM	3.95	3.95 nM
CC(C)Oc1ccccc1N1CCN(CC2CC(CN3CCc4ccc(N)cc43)=NO2)CC1 (centres unmarked) [Compound 6, 1-{5-[4-(2-isopropoxy-phenyl)-piperazin-1-ylmethyl]-4,5-dihydro-isoxazol-3-ylmethyl}-2,3-dihydro-1H-indol-6-ylamine]	4.3	4.3 nM	410	410 nM	46	46 nM
CC(C)Oc1ccccc1N1CCN(CC2CC(C(=O)N3CCc4ccc([N+](=O)[O-])cc43)=NO2)CC1 (centres unmarked) [Compound 11, {5-[4-(2-isopropoxy-phenyl)-piperazin-1-ylmethyl]-4,5-dihydro-isoxazol-3-yl}-(6-nitro-2,3-dihydro-indol-1-yl)-methanone]	1.42	2.2 nM and 0.63 nM	145	153 nM and 136 nM	1.82	3.1 nM and 0.55 nM
COc1ccccc1C1CCN(C(=O)C2=NOC(CN3CCN(c4ccccc4OC(C)C)CC3)C2)CC1 (centres unmarked) [Compound 33, {5-[4-(2-isopropoxy-phenyl)-piperazin-1-ylmethyl]-4,5-dihydro-isoxazol-3-yl}-[4-(2-methoxy-phenyl)-piperidin-1-yl]-methanone]	19	19 nM	254	254 nM	20	20 nM
CC(C)Oc1ccccc1N1CCN(CC2CC(C(=O)N3CCC(Oc4ccccn4)CC3)=NO2)CC1 (centres unmarked) [Compound 32, {5-[4-(2-isopropoxy-phenyl)-piperazin-1-ylmethyl]-4,5-dihydro-isoxazol-3-yl}-[4-(pyridin-2-yloxy)-piperidin-1-yl]-methanone]	41.7	41.7 nM	264	264 nM	44.6	44.6 nM
CC(C)Oc1ccccc1N1CCN(CC2CC(C(=O)N3CCC(C(=O)c4ccccc4)CC3)=NO2)CC1 (centres unmarked) [Compound 21, (4-benzoyl-piperidin-1-yl)-{5-[4-(2-isopropoxy-phenyl)-piperazin-1-ylmethyl]-4,5-dihydro-isoxazol-3-yl}-methanone]	5.25	3.2 nM and 7.3 nM	224	288 nM and 160 nM	7.65	5.5 nM and 9.8 nM
CC(C)Oc1ccccc1N1CCN(CC2CC(C(=O)N3CCc4cc(Br)ccc43)=NO2)CC1 (centres unmarked) [Compound 13, (5-bromo-2,3-dihydro-indol-1-yl)-{5-[4-(2-isopropoxy-phenyl)-piperazin-1-ylmethyl]-4,5-dihydro-isoxazol-3-yl}-methanone]	2.48	1.31 nM and 2.4 nM and 3.7 nM and 2.5 nM	191	402 nM and 147 nM and 134 nM and 82.8 nM	6.08	
CC(C)Oc1ccccc1N1CCN(CC2CC(C(=O)N3CCC(Cc4ccccc4)CC3)=NO2)CC1 (centres unmarked) [Compound 27, (4-benzyl-piperidin-1-yl)-{5-[4-(2-isopropoxy-phenyl)-piperazin-1-ylmethyl]-4,5-dihydro-isoxazol-3-yl}-methanone]	11.6	11.6 nM	219	219 nM	6.5	6.5 nM
COc1cccc(CNc2ccc3c(c2)N(CC2=NOC(CN4CCN(c5ccccc5OC(C)C)CC4)C2)CC3)c1 (centres unmarked) [Compound 9, (1-{5-[4-(2-isopropoxy-phenyl)-piperazin-1-ylmethyl]-4,5-dihydro-isoxazol-3-ylmethyl}-2,3-dihydro-1H-indol-6-yl)-(3-methoxy-benzyl)-amine]	34	34 nM	195	195 nM	22	22 nM
CC(C)Oc1ccccc1N1CCN(CC2CC(CN3CCc4ccc(NCc5ccccc5F)cc43)=NO2)CC1 (centres unmarked) [Compound 8, (2-fluoro-benzyl)-(1-{5-[4-(2-isopropoxy-phenyl)-piperazin-1-ylmethyl]-4,5-dihydro-isoxazol-3-ylmethyl}-2,3-dihydro-1H-indol-6-yl)-amine]	6.9	6.9 nM	304	304 nM	35	35 nM
